Source: US20140005163A1 (NOVARTIS AG, priority 2010, published 2014)
Values after ≈ are worked out from the molar mass of the structure shown.

Assays:
[1] = test system: S6 Ribosomal Protein phosphorylation Ser235/236 in TSC1 null mouse embryo fibroblast (MEF) cells; assay: Reverse protein array assay, S6 Ribosomal Protein phosphorylation Ser235/236 in TSC1 null MEF cells; format: cell-based; settings: 1 h, pS6 ribosomal protein Ser235/236, 60 minutes incubation, read-out: p-S6 IC50
Summary of the method: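 TSC1−/− MEFs, seeded and held ≥20 h at 37 °C/5% CO2, were exposed to 8-step serial compound dilutions (0.02% DMSO final; DMSO vehicle control) for 60 min at 37 °C. Cells were then lysed on ice for 10 min and lysates spotted onto reverse protein array chips.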

Solubility at pH 6.8 = format: physicochemical; settings: pH 6.8, aqueous buffer, thermodynamic from solid; read-out: solubility
Summary of the method: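 Solubility was measured at pH 6.8 following the cited Zhou et al. (2007) procedure.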

[2] = test system: PKB Ser473 phosphorylation in Rat1-myr-HA-p110 alpha cells; assay: Reverse protein array assay, PKB Ser473 phosphorylation in Rat1-myr-p110 alpha cells; format: cell-based; settings: 0.5 h, pAkt Ser473, 30 minutes compound incubation, read-out: p-PKB IC50
Summary of the method: (§1)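 Lysates were arrayed at four dilutions, and phospho-PKB Ser473 was quantified by relative fluorescence signal. They came from Rat1-myr-HA-p110 alpha, beta or delta cells exposed for 30 min at 37 °C to an 8-point compound series with 0.2% DMSO constant.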

[3] = test system: PKB Ser473 phosphorylation in Rat1-myr-HA-p110 beta cells; assay: Reverse protein array assay, PKB Ser473 phosphorylation in Rat1-myr-p110 beta cells; format: cell-based; settings: 0.5 h, pAkt Ser473, 30 minutes incubation, read-out: p-PKB IC50
Summary of the method: as §1

[4] = test system: PKB Ser473 phosphorylation in Rat1-myr-HA-p110 delta cells; assay: Reverse protein array assay, PKB Ser473 phosphorylation in Rat1-myr-p110 delta cells; format: cell-based; settings: read-out: p-PKB IC50
Summary of the method: as §1

Row | solubility (Solubility at pH 6.8) | IC50 [2] | IC50 [3] | IC50 [4] | SMILES | IC50 [1]
1 | > 458 µg/mL | 7 nM | 6 nM | 15 nM | CNc1cc(-c2ccc3ncc4c(c3c2)n(-c2cn(C(C)C)nc2C)c(=O)n4C)cnc1CO [Example 158.2, 8-(6-Hydroxymethyl-5-methylamino-pyridin-3-yl)-1-(1-isopropyl-3-methyl-1H-pyrazol-4-yl)-3-methyl-1,3-dihydro-imidazo[4,5-c]quinolin-2-one] | 1 nM
2 | 15 µg/mL (≈ 35.6 µM) | 8 nM | 10 nM | 28 nM | Cn1cc(-n2c(=O)n(C)c3cnc4ccc(-c5ccc(CO)nc5)cc4c32)c(Cl)n1 [Example 16.5, 1-(3-chloro-1-methyl-1H-pyrazol-4-yl)-8-(6-hydroxymethyl-pyridin-3-yl)-3-methyl-1,3-dihydro-imidazo[4,5-c]quinolin-2-one] | 13 nM
3 | 6 µg/mL (≈ 12.9 µM) | 12 nM | 61 nM | 69 nM | COCCOc1cncc(-c2ccc3ncc4c(c3c2)n(-c2cn(C)nc2Cl)c(=O)n4C)c1 [Example 59.2, 1-(3-Chloro-1-methyl-1H-pyrazol-4-yl)-8-[5-(2-methoxy-ethoxy)-pyridin-3-yl]-3-methyl-1,3-dihydro-imidazo[4,5-c]quinolin-2-one] | 1 nM
4 | 3 µg/mL (≈ 7.05 µM) | 7 nM | 8 nM | 18 nM | Cc1nn(C)cc1-n1c(=O)n(C)c2cnc3ccc(-c4ccc(N5CCC5)nc4)cc3c21 [Example 5.1, 8-(6-Azetidin-1-yl-pyridin-3-yl)-1-(1,3-dimethyl-1H-pyrazol-4-yl)-3-methyl-1,3-dihydro-imidazo[4,5-c]quinolin-2-one] | 10 nM
5 | 10 µg/mL (≈ 23.4 µM) | < 5 nM | 32 nM | 24 nM | CNc1cncc(-c2ccc3ncc4c(c3c2)n(-c2cn(C(C)C)nc2C)c(=O)n4C)c1 [Example 180.2, 1-(1-Isopropyl-3-methyl-1H-pyrazol-4-yl)-3-methyl-8-(5-methylamino-pyridin-3-yl)-1,3-dihydro-imidazo[4,5-c]quinolin-2-one] | 17 nM
6 | 6 µg/mL (≈ 13.1 µM) | 75 nM | 98 nM | 91 nM | CNC(=O)c1cc(-c2ccc3ncc4c(c3c2)n(-c2cn(C)nc2C)c(=O)n4C)cnc1OC [Example 125.1, 5-[1-(1,3-Dimethyl-1H-pyrazol-4-yl)-3-methyl-2-oxo-2,3-dihydro-1H-imidazo[4,5-c]quinolin-8-yl]-2-methoxy-N-methyl-nicotinamide] | 2 nM
7 | 129 µg/mL (≈ 323 µM) | 730 nM | 386 nM | 719 nM | CCn1c(=O)n(-c2cn(C)nc2C)c2c3cc(-c4cncc(N)c4)ccc3ncc21 [Example 245, 8-(5-Amino-pyridin-3-yl)-1-(1,3-dimethyl-1H-pyrazol-4-yl)-3-ethyl-1,3-dihydro-imidazo[4,5-c]quinolin-2-one] | 43 nM
8 | 386 µg/mL (≈ 929 µM) | 5 nM | 9 nM | 18 nM | COc1ncc(-c2ccc3ncc4c(c3c2)n(-c2cn(C)nc2C)c(=O)n4C)cc1N [Example 127, 8-(5-Amino-6-methoxy-pyridin-3-yl)-1-(1,3-dimethyl-1H-pyrazol-4-yl)-3-methyl-1,3-dihydro-imidazo[4,5-c]quinolin-2-one] | 3 nM
9 | > 472 µg/mL | 126 nM | 959 nM | 479 nM | CCNc1ncc(-c2ccc3ncc4c(c3c2)n(-c2c(C)nn(C)c2C)c(=O)n4C)cc1COC [Example 206.2, 8-(6-Ethylamino-5-methoxymethyl-pyridin-3-yl)-3-methyl-1-(1,3,5-trimethyl-1H-pyrazol-4-yl)-1,3-dihydro-imidazo[4,5-c]quinolin-2-one] | 77 nM
10 | 13 µg/mL (≈ 27.2 µM) | 180 nM | 356 nM | 390 nM | Cc1ncc(-c2ccc3ncc4c(c3c2)n(-c2cn(C)nc2C)c(=O)n4C)cc1NS(C)(=O)=O [Example 76, N-{5-[1-(1,3-Dimethyl-1H-pyrazol-4-yl)-3-methyl-2-oxo-2,3-dihydro-1H-imidazo[4,5-c]quinolin-8-yl]-2-methyl-pyridin-3-yl}-methanesulfonamide] | 200 nM
11 | 133 µg/mL (≈ 322 µM) | 20 nM | 17 nM | 83 nM | CCc1ncc(-c2ccc3ncc4c(c3c2)n(-c2cn(C)nc2C)c(=O)n4C)cc1N [Example 208, 8-(5-Amino-6-ethyl-pyridin-3-yl)-1-(1,3-dimethyl-1H-pyrazol-4-yl)-3-methyl-1,3-dihydro-imidazo[4,5-c]quinolin-2-one] | 5 nM
12 | 4 µg/mL (≈ 8.48 µM) | 14 nM | 389 nM | 508 nM | CCOc1ccc(-c2ccc3ncc4c(c3c2)n(-c2c(C)nn(C)c2C)c(=O)n4C)cc1OCC [Example 27.2, 8-(3,4-Diethoxy-phenyl)-3-methyl-1-(1,3,5-trimethyl-1H-pyrazol-4-yl)-1,3-dihydro-imidazo[4,5-c]quinolin-2-one] | 234 nM
13 | 92 µg/mL (≈ 212 µM) | 63 nM | 139 nM | 90 nM | Cc1nn(C)c(C)c1-n1c(=O)n(C)c2cnc3ccc(-c4cnc(N)c(Cl)c4)cc3c21 [Example 148.1, 8-(6-Amino-5-chloro-pyridin-3-yl)-3-methyl-1-(1,3,5-trimethyl-1H-pyrazol-4-yl)-1,3-dihydro-imidazo[4,5-c]quinolin-2-one] | 22 nM
14 | 32 µg/mL (≈ 72 µM) | 134 nM | 128 nM | 401 nM | Cc1nn(C)cc1-n1c(=O)n(C)c2cnc3ccc(-c4ccc(OCCCO)nc4)cc3c21 [Example 108, 1-(1,3-Dimethyl-1H-pyrazol-4-yl)-8-[6-(3-hydroxy-propoxy)-pyridin-3-yl]-3-methyl-1,3-dihydro-imidazo[4,5-c]quinolin-2-one] | 17 nM
15 | 25 µg/mL (≈ 65 µM) | 78 nM | 124 nM | 170 nM | Cc1cncc(-c2ccc3ncc4c(c3c2)n(-c2cn(C)nc2C)c(=O)n4C)c1 [Example 24, 1-(1,3-Dimethyl-1H-pyrazol-4-yl)-3-methyl-8-(5-methyl-pyridin-3-yl)-1,3-dihydro-imidazo[4,5-c]quinolin-2-one] | 9 nM
16 | 44 µg/mL (≈ 106 µM) | 8 nM | 22 nM | 41 nM | CCc1ncc(-c2ccc3ncc4c(c3c2)n(-c2cn(C)nc2C)c(=O)n4C)cc1O [Example 188, 1-(1,3-Dimethyl-1H-pyrazol-4-yl)-8-(6-ethyl-5-hydroxy-pyridin-3-yl)-3-methyl-1,3-dihydro-imidazo[4,5-c]quinolin-2-one] | 8.15 nM
17 | 3 µg/mL (≈ 6.56 µM) | 5 nM | 93 nM | 59 nM | CCOc1ccc(-c2ccc3ncc4c(c3c2)n(-c2cn(CC)nc2C)c(=O)n4C)cc1OC [Example 29.1, 8-(4-Ethoxy-3-methoxy-phenyl)-1-(1-ethyl-3-methyl-1H-pyrazol-4-yl)-3-methyl-1,3-dihydro-imidazo[4,5-c]quinolin-2-one] | 9 nM
18 | 13 µg/mL (≈ 30.9 µM) | 7 nM | 9 nM | 19 nM | Cc1nn(C)cc1-n1c(=O)n(C)c2cnc3ccc(-c4cnc5ccccc5c4)cc3c21 [Example 38, 1-(1,3-Dimethyl-1H-pyrazol-4-yl)-3-methyl-8-quinolin-3-yl-1,3-dihydro-imidazo[4,5-c]quinolin-2-one] | 3 nM
19 | 21 µg/mL (≈ 46.7 µM) | 14 nM | 20 nM | 41 nM | Cc1nn(C)cc1-n1c(=O)n(C)c2cnc3ccc(-c4cncc(C5(C#N)CCC5)c4)cc3c21 [Example 221.1, 1-{5-[1-(1,3-Dimethyl-1H-pyrazol-4-yl)-3-methyl-2-oxo-2,3-dihydro-1H-imidazo[4,5-c]quinolin-8-yl]-pyridin-3-yl}-cyclobutanecarbonitrile] | 1 nM
20 | 25 µg/mL (≈ 60.5 µM) | 20 nM | 49 nM | 85 nM | Cc1nn(C)cc1-n1c(=O)n(C)c2cnc3ccc(-c4cncc(N(C)C)c4)cc3c21 [Example 178, 8-(5-Dimethylamino-pyridin-3-yl)-1-(1,3-dimethyl-1H-pyrazol-4-yl)-3-methyl-1,3-dihydro-imidazo[4,5-c]quinolin-2-one] | 2 nM
21 | 243 µg/mL (≈ 499 µM) | 27 nM | 58 nM | 88 nM | CCn1cc(-n2c(=O)n(C)c3cnc4ccc(-c5cnc(COC)c(OC(C)C)c5)cc4c32)c(C)n1 [Example 191.2, 1-(1-Ethyl-3-methyl-1H-pyrazol-4-yl)-8-(5-isopropoxy-6-methoxymethyl-pyridin-3-yl)-3-methyl-1,3-dihydro-imidazo[4,5-c]quinolin-2-one] | 5 nM
